What was measured:
Assay type in all cases: in vivo
[1] = system: corn (Zea mays); experiment: Test A preemergence soil spray, visual injury rating 0-100; settings: 10 days
How it was run: (§1)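 Loam-sand pots got test material in surfactant-containing solvent, either as a directed soil spray before emergence or on plants at the one- to two-leaf stage. Visual injury (0-100) was read after ten greenhouse days.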

[2] = system: oat, wild (wild oat, Avena fatua); experiment: as above; settings: 10 days
How it was run: as §1

[3] = system: ragweed (common ragweed, Ambrosia artemisiifolia); experiment: as above; settings: 10 days
How it was run: as §1

[4] = system: green foxtail (Setaria viridis); experiment: as above; settings: 10 days
How it was run: as §1

[5] = system: barnyardgrass (Echinochloa crus-galli); experiment: as above; settings: 10 days
How it was run: as §1

[6] = system: soybean (Glycine max); experiment: as above; settings: 10 days
How it was run: as §1

[7] = system: blackgrass (Alopecurus myosuroides); experiment: as above; settings: 10 days
How it was run: as §1

[8] = system: wheat (Triticum aestivum); experiment: as above; settings: 10 days
How it was run: as §1

[9] = system: kochia (Bassia scoparia); experiment: as above; settings: 10 days
How it was run: as §1

[10] = system: palmer (palmer amaranth, palmer pigweed, Amaranthus palmeri); experiment: as above; settings: 10 days
How it was run: as §1

[11] = system: ryegrass, Italian (italian ryegrass, Lolium multiflorum); experiment: as above; settings: 10 days
How it was run: as §1

[12] = system: galium (catchweed bedstraw, Galium aparine); experiment: Test A postemergence application, visual injury rating 0-100
How it was run: as §1

[13] = system: corn (Zea mays); experiment: as above
How it was run: as §1

[14] = system: oat, wild (wild oat, Avena fatua); experiment: as above
How it was run: as §1

[15] = system: ragweed (common ragweed, Ambrosia artemisiifolia); experiment: as above
How it was run: as §1

[16] = system: green foxtail (Setaria viridis); experiment: as above
How it was run: as §1

[17] = system: barnyardgrass (Echinochloa crus-galli); experiment: as above
How it was run: as §1

[18] = system: horseweed (Erigeron canadensis); experiment: as above
How it was run: as §1

[19] = system: soybean (Glycine max); experiment: as above
How it was run: as §1

[20] = system: blackgrass (Alopecurus myosuroides); experiment: as above
How it was run: as §1

[21] = system: wheat (Triticum aestivum); experiment: as above
How it was run: as §1

[22] = system: kochia (Bassia scoparia); experiment: as above
How it was run: as §1

[23] = system: palmer (palmer amaranth, palmer pigweed, Amaranthus palmeri); experiment: as above
How it was run: as §1

[24] = system: ryegrass, Italian (italian ryegrass, Lolium multiflorum); experiment: as above
How it was run: as §1

[25] = system: rice (Oryza sativa); experiment: Test B flooded paddy test, visual plant response rating 0-100; settings: 250 g ai/ha, Flood, applied to paddy water, evaluated after 13 days
How it was run: (§2)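 Compounds applied to standing paddy water (3 cm above soil, maintained for the test duration) on 2-leaf-stage plants; visual rating vs controls at 13 days, greenhouse.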

[26] = system: ducksalad (Heteranthera limosa); experiment: as above; settings: 250 g ai/ha, Flood, applied to paddy water, evaluated after 13 days
How it was run: as §2

[27] = system: barnyardgrass (Echinochloa crusgalli); experiment: as above; settings: 250 g ai/ha, Flood, applied to paddy water, evaluated after 13 days
How it was run: as §2

[28] = system: sedge, umbrella (small-flower umbrella sedge, Cyperus difformis); experiment: as above; settings: 250 g ai/ha, Flood, applied to paddy water, evaluated after 13 days
How it was run: as §2

[29] = 62 g ai/ha, 0 = no effect, 100 = complete control
[30] = 62 g ai/ha, postemergence, 10 days, 0 = no effect, 100 = complete control
[31] = Postemergence, 16 g ai/ha, greenhouse 10 days, 0 no effect, 100 complete control

C=CC1(C(=O)NC2C=CC(C(=O)OC)C2)CN(c2cc(F)cc(F)c2)C(=O)O1 (single isomer, unassigned) [Compound 167]
Corn plant response rating ([1]; 16 g ai/ha, 0 to 100 scale): 40
Corn plant response rating (0-100) [1, 29]: 90
Oat, Wild plant response rating ([2]; 16 g ai/ha, 0 to 100 scale): 50
Oat, Wild plant response rating (0-100) [2, 29]: 90
Ragweed plant response rating ([3]; 16 g ai/ha, 0 to 100 scale): 60
Ragweed plant response rating (0-100) [3, 29]: 90
Foxtail, Green plant response rating ([4]; 16 g ai/ha, 0 to 100 scale): 90
Foxtail, Green plant response rating (0-100) [4, 29]: 100
Barnyardgrass plant response rating ([5]; 16 g ai/ha, 0 to 100 scale): 60
Barnyardgrass plant response rating (0-100) [5, 29]: 100
Soybean plant response rating ([6]; 16 g ai/ha, 0 to 100 scale): 70
Soybean plant response rating (0-100) [6, 29]: 80
Blackgrass plant response rating ([7]; 16 g ai/ha, 0 to 100 scale): 30
Blackgrass plant response rating (0-100) [7, 29]: 70
Wheat plant response rating ([8]; 16 g ai/ha, 0 to 100 scale): 70
Wheat plant response rating (0-100) [8, 29]: 90
Kochia plant response rating ([9]; 16 g ai/ha, 0 to 100 scale): 70
Kochia plant response rating (0-100) [9, 29]: 100
Pigweed, Palmer plant response rating ([10]; 16 g ai/ha, 0 to 100 scale): 100
Pigweed, Palmer plant response rating (0-100) [10, 29]: 100
Ryegrass, Italian plant response rating ([11]; 16 g ai/ha, 0 to 100 scale): 80
Ryegrass, Italian plant response rating (0-100) [11, 29]: 90
Galium plant response rating (0-100) [12, 30]: 80
Galium plant response rating (0 to 100 scale) [12, 31]: 80
Corn plant response rating (0-100) [13, 30]: 100
Corn plant response rating (0 to 100 scale) [13, 31]: 100
Oat, Wild plant response rating (0-100) [14, 30]: 90
Oat, Wild plant response rating (0 to 100 scale) [14, 31]: 90
Ragweed plant response rating (0-100) [15, 30]: 80
Ragweed plant response rating (0 to 100 scale) [15, 31]: 70
Foxtail, Green plant response rating (0-100) [16, 30]: 90
Foxtail, Green plant response rating (0 to 100 scale) [16, 31]: 90
Barnyardgrass plant response rating (0-100) [17, 30]: 90
Barnyardgrass plant response rating (0 to 100 scale) [17, 31]: 90
Horseweed plant response rating (0-100) [18, 30]: 80
Horseweed plant response rating (0 to 100 scale) [18, 31]: 80
Soybean plant response rating (0-100) [19, 30]: 80
Soybean plant response rating (0 to 100 scale) [19, 31]: 80
Blackgrass plant response rating (0-100) [20, 30]: 90
Blackgrass plant response rating (0 to 100 scale) [20, 31]: 80
Wheat plant response rating (0-100) [21, 30]: 90
Wheat plant response rating (0 to 100 scale) [21, 31]: 90
Kochia plant response rating (0-100) [22, 30]: 80
Kochia plant response rating (0 to 100 scale) [22, 31]: 80
Pigweed, Palmer plant response rating (0-100) [23, 30]: 90
Pigweed, Palmer plant response rating (0 to 100 scale) [23, 31]: 90
Ryegrass, Italian plant response rating (0-100) [24, 30]: 90
Ryegrass, Italian plant response rating (0 to 100 scale) [24, 31]: 80
Plant response rating, Rice (0 to 100 scale, 0 is no effect and 100 is complete control) [25]: 98
Plant response rating, Ducksalad (0 to 100 scale, 0 is no effect and 100 is complete control) [26]: 98
Plant response rating, Barnyardgrass (0 to 100 scale, 0 is no effect and 100 is complete control) [27]: 90
Plant response rating, Sedge, Umbrella (0 to 100 scale, 0 is no effect and 100 is complete control) [28]: 98
